# Measured values: ChEMBL document CHEMBL5352401, “Novel cudraisoflavone J derivatives as potent neuroprotective agents for the treatment of Parkinson's disease via the activation of Nrf2/HO-1 signaling” (Eur J Med Chem, 2022)
# Active and inactive are the calls of the source. No cut-off for these calls is given here.
# Assays:
# PC-12 [1] = test: Neuroprotective activity against 6-OHDA-induced cytotoxicity in rat PC-12 cells at 30 uM for 4 hrs followed by exposure to 6-OHDA measured after 24 hrs by MTT assay; assay type: functional, cell-based; details: time 28.0 hrs
# PC-12 [2] = test: Neuroprotective activity against 6-OHDA-induced cytotoxicity in rat PC-12 cells at 10 uM for 4 hrs followed by exposure to 6-OHDA measured after 24 hrs by MTT assay; assay type: functional, cell-based; details: time 28.0 hrs
# PC-12 [3] = test: Cytotoxicity in rat PC-12 cells assessed as cell viability measured at 10 uM for 24 hrs by MTT assay; assay type: functional, cell-based
# PC-12 [4] = test: Neuroprotective activity against 6-OHDA-induced cytotoxicity in rat PC-12 cells at 10 to 30 uM for 4 hrs followed by exposure to 6-OHDA measured after 24 hrs by MTT assay; assay type: functional, cell-based; details: dose 10-30 µM, time 28.0 hrs
# PC-12 [5] = test: Cytotoxicity in rat PC-12 cells assessed as cell viability measured at 10 to 30 uM for 24 hrs by MTT assay; assay type: functional, cell-based; details: dose 10-30 µM
# PC-12 [6] = test: Cytotoxicity in rat PC-12 cells assessed as cell viability measured upto 30 uM for 24 hrs by MTT assay relative to control; assay type: functional; details: up to 30 µM
# PC-12 [7] = test: Neuroprotective activity against 6-OHDA-induced cytotoxicity in rat PC-12 cells at 0.1 uM for 4 hrs followed by exposure to 6-OHDA measured after 24 hrs by MTT assay; assay type: functional, cell-based; details: time 28.0 hrs
# [8] = Neurotoxicity in rotenone induced at rat PC-12 cells assessed as cell viability pretreated with compound for 4 hrs followed by rotenone addition measured after 24 hrs by MTT assay; assay type: toxicity, cell-based
# [9] = Neurotoxicity in rotenone induced at rat PC-12 cells assessed as cell viability at 30 uM pretreated for 4 hrs followed by rotenone addition measured after 24 hrs by MTT assay (reference value: 53.4 +/- 2.6%); assay type: toxicity, cell-based; details: time 28 hrs, read-out: Activity
# PC-12 [10] = test: Cytotoxicity in rat PC-12 cells assessed as cell viability measured at 30 uM for 24 hrs by MTT assay relative to control; assay type: functional; details: read-out: Activity
# PC-12 [11] = test: Cytotoxicity in rat PC-12 cells assessed as cell viability measured upto 30 uM for 24 hrs by MTT assay; assay type: functional, cell-based
# PC-12 [12] = test: Cytotoxicity in rat PC-12 cells assessed as cell viability incubated for 24 hrs by MTT assay; assay type: functional, cell-based; details: PC-12, 24 h
# PC-12 [13] = test: Neuroprotective activity against 6-OHDA-induced cytotoxicity in rat PC-12 cells for 4 hrs followed by exposure to 6-OHDA measured after 24 hrs by MTT assay; assay type: functional, cell-based; details: dose 0.1-30 µM, time 28.0 hrs
# PC-12 [14] = test: Cytotoxicity in rat PC-12 cells assessed as cell viability measured at 30 uM for 24 hrs by MTT assay; assay type: functional, cell-based
# Monoamine oxidase = biological target: T1, Monoamine oxidase (Mus musculus, UniProt Q8BW75+Q64133); test: Inhibition of mouse brain mitochondrial MAO using kynuramine as substrate incubated for 15 mins measured fluorometric analysis; assay type: mitochondria, Mitochondria
# T1 sequence (Q8BW75 whole entry): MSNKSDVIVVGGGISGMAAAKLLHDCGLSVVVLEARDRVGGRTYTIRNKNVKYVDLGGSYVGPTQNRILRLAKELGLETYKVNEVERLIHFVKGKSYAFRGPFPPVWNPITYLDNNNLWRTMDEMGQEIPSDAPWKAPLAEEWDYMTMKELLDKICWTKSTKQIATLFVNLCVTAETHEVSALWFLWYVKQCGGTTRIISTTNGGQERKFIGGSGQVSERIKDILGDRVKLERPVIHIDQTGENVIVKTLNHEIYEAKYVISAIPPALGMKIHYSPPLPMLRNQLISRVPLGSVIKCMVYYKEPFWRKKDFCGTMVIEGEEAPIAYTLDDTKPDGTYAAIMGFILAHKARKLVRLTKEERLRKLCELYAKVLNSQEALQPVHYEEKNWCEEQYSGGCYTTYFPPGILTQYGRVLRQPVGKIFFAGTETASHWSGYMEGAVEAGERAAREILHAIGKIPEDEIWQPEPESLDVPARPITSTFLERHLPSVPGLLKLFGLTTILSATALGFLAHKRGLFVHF
# T1 sequence (Q64133 whole entry): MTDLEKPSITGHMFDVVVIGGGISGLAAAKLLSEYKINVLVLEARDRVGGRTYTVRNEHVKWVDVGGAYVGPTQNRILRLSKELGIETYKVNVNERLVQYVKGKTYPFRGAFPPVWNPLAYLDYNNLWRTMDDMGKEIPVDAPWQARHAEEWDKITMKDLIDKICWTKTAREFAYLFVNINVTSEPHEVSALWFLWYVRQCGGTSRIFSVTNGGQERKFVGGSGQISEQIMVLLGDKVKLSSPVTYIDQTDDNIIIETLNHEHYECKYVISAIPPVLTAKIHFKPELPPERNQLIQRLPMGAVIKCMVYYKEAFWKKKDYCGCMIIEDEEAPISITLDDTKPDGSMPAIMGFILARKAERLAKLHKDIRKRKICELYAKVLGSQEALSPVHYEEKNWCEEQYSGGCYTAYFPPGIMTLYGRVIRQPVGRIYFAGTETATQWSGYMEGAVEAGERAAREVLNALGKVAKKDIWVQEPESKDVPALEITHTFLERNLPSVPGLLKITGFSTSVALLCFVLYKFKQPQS
smiles,measurement,setting,value
CC1(C)Oc2c(c(O)cc3occ(-c4ccco4)c(=O)c23)CC1O (stereo unspecified),Activity,PC-12 [1],inactive
same,Activity,PC-12 [2],Active
same,Activity,PC-12 [3],Active
CCOc1ccc(-c2coc3cc4c(c(O)c3c2=O)C=CC(C)(C)O4)cc1,Activity,PC-12 [4],Active
same,Activity,PC-12 [5],inactive
same,Activity,PC-12 [6],~80%
same,Activity,PC-12 [7],Active
COc1cccc(-c2coc3cc(O)c4c(c3c2=O)OC(C)(C)C(O)C4)c1 (stereo unspecified),Activity,PC-12 [4],Active
same,IC50,[8],5.5 µM
same,viability at 30 µM,[9],80.3%
same,viability at 30 µM,PC-12 [10],86%
same,Activity,PC-12 [11],inactive
same,IC50,PC-12 [12],8 µM
same,Activity,PC-12 [13],Dose-Dependent Effect
CC1(C)C=Cc2c(cc3occ(-c4ccc(O)cc4)c(=O)c3c2O)O1 [ALPINUMISOFLAVONE],Activity,PC-12 [14],Active
same,IC50,Monoamine oxidase,25.8 µM
